Test results from US10722515B2, “Dual CLK/CDK1 inhibitors for cancer treatment” (SRI INTERNATIONAL, priority 2016, dated 2020).

Assays:
Assay type in all cases: biochemical
[1] = target: T1, CLK2(h) (Homo sapiens, UniProt P49760); test: radiometric protein kinase assay, CLK2; conditions: enzyme inhibition, ATP 10 μM
T1 construct: purchased Eurofins, Dundee, Scotland
Procedure: (§1) Enzymatic biochemical activities were evaluated in radiometric protein kinase assays (Eurofins, Dundee, Scotland). Kinases are incubated with buffer, substrate and [γ-^33P]-ATP (specific activity approx. 500 cpm/pmol, concentration as required). The reaction is initiated by the addition of the MgATP mix. After incubation for 40 minutes at room temperature, the reaction is stopped by the addition of 3% phosphoric acid solution. 10 μL of the reaction is then spotted onto a P30 filtermat and washed three times for 5 minutes in 75 mM phosphoric acid and once in methanol prior to drying and scintillation counting.
(§2) All compounds are prepared to 50× final assay concentration in 100% DMSO. Positive control wells contain all components of the reaction with 2% DMSO. Blank wells contain all components of the reaction, with a reference inhibitor replacing the compound of interest. Each kinase is assigned a standard assay concentration of ATP within 20 μM of its apparent KM. Compounds were screened at 1 μM in duplicate or tested at 10 concentrations at half log dilution starting from 10 μM in singlicate. Dose response curves were fitted with four parameter logistic curve to obtain IC50 values. The average coefficient of variation (CV) of the conducted assay is 4.4%.

[2] = target: T2, CLK4(h) (Homo sapiens, UniProt Q9HAZ1); test: radiometric protein kinase assay, CLK4; conditions: enzyme inhibition, ATP 10 μM
T2 construct: purchased Eurofins, Dundee, Scotland
Procedure: as §1, §2

[3] = target: T3, Aurora-A(h) (Homo sapiens, UniProt O14965); test: kinase profile, radiometric assay, Aurora-A
T3 construct: purchased Eurofins, Dundee, Scotland
T3 sequence (O14965 1-403): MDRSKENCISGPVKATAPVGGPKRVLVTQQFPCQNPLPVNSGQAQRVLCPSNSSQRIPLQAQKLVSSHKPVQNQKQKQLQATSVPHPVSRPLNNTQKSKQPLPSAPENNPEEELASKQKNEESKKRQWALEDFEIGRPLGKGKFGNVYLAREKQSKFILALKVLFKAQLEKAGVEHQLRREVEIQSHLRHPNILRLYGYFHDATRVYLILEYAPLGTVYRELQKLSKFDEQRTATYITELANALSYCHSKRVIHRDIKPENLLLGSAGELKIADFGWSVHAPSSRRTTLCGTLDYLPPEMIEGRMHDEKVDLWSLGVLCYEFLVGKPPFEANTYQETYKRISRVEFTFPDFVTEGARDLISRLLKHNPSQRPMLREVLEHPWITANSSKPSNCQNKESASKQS
Procedure: as §1, §2

[4] = target: T4, EGFR(h) (Homo sapiens, UniProt P00533); test: kinase profile, radiometric assay, EGFR
T4 construct: purchased Eurofins, Dundee, Scotland
Procedure: as §1, §2

[5] = target: T5, Flt3(h) (Homo sapiens, UniProt P36888); test: kinase profile, radiometric assay, Flt3
T5 construct: purchased Eurofins, Dundee, Scotland
T5 sequence (P36888 27-993): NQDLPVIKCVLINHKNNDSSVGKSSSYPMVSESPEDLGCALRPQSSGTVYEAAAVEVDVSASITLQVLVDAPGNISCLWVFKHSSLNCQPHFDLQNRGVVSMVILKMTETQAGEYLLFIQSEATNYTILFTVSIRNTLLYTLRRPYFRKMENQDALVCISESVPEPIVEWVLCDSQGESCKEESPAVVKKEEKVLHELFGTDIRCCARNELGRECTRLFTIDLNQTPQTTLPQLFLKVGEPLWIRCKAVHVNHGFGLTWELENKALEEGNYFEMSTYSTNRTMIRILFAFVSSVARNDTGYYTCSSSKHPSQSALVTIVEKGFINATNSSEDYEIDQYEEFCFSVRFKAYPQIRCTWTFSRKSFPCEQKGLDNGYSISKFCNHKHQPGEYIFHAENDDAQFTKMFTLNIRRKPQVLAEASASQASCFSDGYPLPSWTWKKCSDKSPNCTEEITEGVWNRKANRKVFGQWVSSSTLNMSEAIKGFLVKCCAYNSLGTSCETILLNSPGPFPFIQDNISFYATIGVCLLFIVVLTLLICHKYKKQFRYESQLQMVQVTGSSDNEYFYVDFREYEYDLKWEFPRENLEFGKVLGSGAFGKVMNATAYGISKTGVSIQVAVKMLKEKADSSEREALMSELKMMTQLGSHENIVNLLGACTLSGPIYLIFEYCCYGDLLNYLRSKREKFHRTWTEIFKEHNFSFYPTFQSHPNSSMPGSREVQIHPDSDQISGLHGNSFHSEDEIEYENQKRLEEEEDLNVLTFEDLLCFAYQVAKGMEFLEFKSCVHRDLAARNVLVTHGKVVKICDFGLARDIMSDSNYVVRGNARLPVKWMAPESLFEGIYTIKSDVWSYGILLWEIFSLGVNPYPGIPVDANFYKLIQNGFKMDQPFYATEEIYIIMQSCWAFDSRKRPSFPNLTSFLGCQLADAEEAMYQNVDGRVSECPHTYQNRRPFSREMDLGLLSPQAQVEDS
Procedure: as §1, §2

[6] = target: T6, IKKβ(h) (Homo sapiens, UniProt O14920); test: kinase profile, radiometric assay, IKKβ
T6 construct: purchased Eurofins, Dundee, Scotland
T6 sequence (O14920 1-756): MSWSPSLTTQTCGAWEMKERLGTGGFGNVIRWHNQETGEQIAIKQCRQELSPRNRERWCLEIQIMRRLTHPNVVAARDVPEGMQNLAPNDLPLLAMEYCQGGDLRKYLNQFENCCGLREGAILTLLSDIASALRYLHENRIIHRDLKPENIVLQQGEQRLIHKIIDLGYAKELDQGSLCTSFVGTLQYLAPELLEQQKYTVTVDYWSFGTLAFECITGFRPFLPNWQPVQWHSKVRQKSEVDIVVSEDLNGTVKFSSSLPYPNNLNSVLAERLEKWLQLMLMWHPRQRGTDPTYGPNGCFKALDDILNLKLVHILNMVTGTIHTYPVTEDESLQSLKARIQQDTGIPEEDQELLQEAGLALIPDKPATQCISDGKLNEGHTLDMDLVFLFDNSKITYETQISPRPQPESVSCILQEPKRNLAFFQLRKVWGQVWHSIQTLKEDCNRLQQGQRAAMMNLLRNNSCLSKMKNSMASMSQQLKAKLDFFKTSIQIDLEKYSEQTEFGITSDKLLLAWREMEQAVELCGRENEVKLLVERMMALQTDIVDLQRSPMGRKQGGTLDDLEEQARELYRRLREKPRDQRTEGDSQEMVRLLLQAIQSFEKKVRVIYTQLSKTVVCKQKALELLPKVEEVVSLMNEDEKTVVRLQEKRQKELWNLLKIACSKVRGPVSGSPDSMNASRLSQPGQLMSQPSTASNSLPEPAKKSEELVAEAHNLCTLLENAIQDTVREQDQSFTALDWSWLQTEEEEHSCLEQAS
Procedure: as §1, §2

[7] = target: T7, KDR(h) (Homo sapiens, UniProt P35968); test: kinase profile, radiometric assay, KDR
T7 construct: purchased Eurofins, Dundee, Scotland
Procedure: as §1, §2

[8] = target: T8, Src(1-530)(h) (Homo sapiens, UniProt P12931); test: kinase profile, radiometric assay, Src(1-530)
T8 construct: Src(1-530)
Procedure: as §1, §2

T4 sequence (P00533 25-1210): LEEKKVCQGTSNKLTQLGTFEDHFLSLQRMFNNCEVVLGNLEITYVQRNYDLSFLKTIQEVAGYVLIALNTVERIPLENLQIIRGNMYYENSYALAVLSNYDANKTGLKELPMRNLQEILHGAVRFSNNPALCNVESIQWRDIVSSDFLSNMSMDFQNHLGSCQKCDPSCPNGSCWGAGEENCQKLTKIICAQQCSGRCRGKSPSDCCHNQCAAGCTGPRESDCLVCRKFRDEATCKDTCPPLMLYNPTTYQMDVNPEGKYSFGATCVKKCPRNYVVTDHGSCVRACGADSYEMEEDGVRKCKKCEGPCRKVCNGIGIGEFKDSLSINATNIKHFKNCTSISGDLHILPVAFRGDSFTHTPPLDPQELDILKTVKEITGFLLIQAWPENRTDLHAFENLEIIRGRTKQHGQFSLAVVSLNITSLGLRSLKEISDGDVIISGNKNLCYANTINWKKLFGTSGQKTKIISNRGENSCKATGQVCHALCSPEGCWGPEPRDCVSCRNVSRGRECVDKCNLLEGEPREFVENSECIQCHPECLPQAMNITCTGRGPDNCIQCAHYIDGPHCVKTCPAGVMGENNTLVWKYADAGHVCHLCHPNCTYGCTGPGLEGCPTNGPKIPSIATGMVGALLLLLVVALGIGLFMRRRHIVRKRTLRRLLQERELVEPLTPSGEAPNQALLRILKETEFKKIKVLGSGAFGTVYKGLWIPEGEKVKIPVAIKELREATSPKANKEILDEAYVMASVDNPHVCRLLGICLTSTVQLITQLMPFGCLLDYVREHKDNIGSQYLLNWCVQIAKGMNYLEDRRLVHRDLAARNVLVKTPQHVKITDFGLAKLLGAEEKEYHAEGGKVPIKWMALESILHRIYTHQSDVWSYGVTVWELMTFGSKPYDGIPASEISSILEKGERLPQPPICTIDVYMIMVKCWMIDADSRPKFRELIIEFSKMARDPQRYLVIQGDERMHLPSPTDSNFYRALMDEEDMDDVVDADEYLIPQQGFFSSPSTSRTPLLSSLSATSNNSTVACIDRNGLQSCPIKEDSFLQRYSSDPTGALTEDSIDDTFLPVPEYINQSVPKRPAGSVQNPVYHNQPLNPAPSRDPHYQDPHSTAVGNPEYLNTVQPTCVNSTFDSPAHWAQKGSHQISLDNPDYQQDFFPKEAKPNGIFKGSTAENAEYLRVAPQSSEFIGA
T1 sequence (P49760 whole entry): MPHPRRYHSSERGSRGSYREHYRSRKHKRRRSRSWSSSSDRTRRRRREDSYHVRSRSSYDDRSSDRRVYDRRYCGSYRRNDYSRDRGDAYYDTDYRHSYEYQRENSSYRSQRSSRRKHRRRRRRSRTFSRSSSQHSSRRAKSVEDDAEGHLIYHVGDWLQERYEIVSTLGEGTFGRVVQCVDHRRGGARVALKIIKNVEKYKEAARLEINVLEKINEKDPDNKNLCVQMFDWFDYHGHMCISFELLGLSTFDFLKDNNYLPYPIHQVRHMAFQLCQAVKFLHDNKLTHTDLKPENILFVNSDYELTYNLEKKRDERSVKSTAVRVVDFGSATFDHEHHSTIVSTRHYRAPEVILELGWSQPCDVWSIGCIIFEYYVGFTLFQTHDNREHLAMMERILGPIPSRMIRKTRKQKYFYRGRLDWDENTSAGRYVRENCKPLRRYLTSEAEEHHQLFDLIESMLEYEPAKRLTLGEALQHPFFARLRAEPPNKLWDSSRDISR
T8 sequence (P12931 1-530): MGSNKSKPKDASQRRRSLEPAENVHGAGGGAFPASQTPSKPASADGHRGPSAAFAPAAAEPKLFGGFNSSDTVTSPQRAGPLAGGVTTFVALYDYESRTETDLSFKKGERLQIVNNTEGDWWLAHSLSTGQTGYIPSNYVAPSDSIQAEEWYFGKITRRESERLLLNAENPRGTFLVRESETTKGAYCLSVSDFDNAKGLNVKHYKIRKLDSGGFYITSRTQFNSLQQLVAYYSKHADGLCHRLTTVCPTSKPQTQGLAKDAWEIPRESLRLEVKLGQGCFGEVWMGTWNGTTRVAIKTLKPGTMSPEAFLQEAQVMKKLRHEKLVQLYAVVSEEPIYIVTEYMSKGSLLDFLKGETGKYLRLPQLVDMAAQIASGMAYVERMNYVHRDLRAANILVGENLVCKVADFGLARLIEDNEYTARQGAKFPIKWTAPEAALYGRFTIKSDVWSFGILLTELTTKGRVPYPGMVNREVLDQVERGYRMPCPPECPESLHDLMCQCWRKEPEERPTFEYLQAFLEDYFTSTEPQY
T7 sequence (P35968 20-1356): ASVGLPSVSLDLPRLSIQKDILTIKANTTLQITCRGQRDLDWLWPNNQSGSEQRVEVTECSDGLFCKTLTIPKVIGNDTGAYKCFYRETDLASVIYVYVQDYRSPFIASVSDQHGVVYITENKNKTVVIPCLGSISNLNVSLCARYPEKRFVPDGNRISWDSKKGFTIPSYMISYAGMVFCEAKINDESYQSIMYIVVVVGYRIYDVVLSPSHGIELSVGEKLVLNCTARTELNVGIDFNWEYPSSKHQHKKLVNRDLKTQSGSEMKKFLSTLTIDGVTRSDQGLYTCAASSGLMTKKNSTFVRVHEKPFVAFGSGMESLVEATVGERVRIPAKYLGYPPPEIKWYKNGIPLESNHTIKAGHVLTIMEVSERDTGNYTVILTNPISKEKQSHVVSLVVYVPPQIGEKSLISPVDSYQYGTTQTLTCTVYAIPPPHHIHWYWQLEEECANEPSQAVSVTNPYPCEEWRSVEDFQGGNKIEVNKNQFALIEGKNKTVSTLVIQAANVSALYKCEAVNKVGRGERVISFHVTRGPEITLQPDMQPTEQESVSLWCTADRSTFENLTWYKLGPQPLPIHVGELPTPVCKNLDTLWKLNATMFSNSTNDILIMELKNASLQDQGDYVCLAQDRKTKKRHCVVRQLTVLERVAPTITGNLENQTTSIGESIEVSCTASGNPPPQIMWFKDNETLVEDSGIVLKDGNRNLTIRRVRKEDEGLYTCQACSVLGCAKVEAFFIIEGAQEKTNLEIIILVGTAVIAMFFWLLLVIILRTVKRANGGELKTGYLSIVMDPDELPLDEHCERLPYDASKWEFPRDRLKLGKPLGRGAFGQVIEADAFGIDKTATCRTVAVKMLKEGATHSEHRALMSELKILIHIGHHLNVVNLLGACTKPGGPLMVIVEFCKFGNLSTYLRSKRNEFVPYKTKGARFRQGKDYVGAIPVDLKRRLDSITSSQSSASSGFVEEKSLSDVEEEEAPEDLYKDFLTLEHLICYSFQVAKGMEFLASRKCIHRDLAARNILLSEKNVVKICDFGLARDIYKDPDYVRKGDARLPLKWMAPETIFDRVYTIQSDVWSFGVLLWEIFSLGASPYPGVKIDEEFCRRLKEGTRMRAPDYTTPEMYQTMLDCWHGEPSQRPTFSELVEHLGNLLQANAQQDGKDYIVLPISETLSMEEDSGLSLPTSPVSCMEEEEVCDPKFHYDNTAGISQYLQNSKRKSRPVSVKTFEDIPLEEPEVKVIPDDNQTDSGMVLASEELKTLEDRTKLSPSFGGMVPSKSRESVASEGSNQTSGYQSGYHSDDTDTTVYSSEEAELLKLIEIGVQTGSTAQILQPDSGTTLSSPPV
T2 sequence (Q9HAZ1 whole entry): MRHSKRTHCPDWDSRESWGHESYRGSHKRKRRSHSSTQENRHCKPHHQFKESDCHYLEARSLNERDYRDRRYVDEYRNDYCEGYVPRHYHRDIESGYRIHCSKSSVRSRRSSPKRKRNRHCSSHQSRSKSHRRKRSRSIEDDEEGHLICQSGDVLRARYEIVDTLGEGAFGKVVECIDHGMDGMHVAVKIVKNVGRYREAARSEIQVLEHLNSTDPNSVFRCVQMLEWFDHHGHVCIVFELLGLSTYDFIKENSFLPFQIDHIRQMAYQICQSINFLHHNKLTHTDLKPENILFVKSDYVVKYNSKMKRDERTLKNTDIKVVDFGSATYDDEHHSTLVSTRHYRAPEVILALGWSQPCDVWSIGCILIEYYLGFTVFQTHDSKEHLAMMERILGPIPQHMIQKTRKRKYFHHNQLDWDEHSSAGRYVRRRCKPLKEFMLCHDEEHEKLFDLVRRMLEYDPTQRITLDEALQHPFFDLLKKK

CC(C)n1cnc2c(Nc3cccc(Cl)c3)nc(N[C@@H]3CCCC[C@@H]3N)nc21 [Compound 9, N^2-((1R,2S)-2-Aminocyclohexyl)-N^6-(3-Chlorophenyl)-9-Isopropyl-9H-Purine-2,6-Diamine]
IC50 [1]: 11 nM
IC50 [2]: 50 nM
inhibition at 1 µM [3]: -5%
inhibition at 1 µM [4]: 3%
inhibition at 1 µM [5]: 90%
inhibition at 1 µM [6]: -5%
inhibition at 1 µM [7]: -6%
inhibition at 1 µM [8]: 69%

CC(C)n1cnc2c(Nc3cccc(Cl)c3)nc(N[C@H]3CCCC[C@@H]3N)nc21 [Compound 8, N^2-((1S,2S)-2-Aminocyclohexyl)-V-(3-Chlorophenyl)-9-Isopropyl-9H-Purine-2,6-Diamine]
IC50 [1]: 16 nM
IC50 [2]: 86 nM
inhibition at 1 µM [3]: 4%
inhibition at 1 µM [4]: -6%
inhibition at 1 µM [5]: 19%
inhibition at 1 µM [6]: -2%
inhibition at 1 µM [7]: 16%
inhibition at 1 µM [8]: 22%

CC(C)n1cnc2c(Nc3cc(N)cc(Cl)c3)nc(NC3CCCCC3N)nc21 (racemic) [Compound 14, Racemic N^6-Cis-(3-Amino-5-Chlorophenyl)-N^2-(2-Aminocyclohexyl)-9-Isopropyl-9H-Purine-2,6-Diamine]
IC50 [1]: 16 nM
IC50 [2]: 54 nM
inhibition at 1 µM [3]: 13%
inhibition at 1 µM [4]: -1%
inhibition at 1 µM [5]: 93%
inhibition at 1 µM [6]: -9%
inhibition at 1 µM [7]: 4%
inhibition at 1 µM [8]: 78%
